Common to all, as to type: functional, organism-based
Test [1] relates to Human immunodeficiency virus 1. Description: Antiviral activity against HIV1.
Test [2] concerns Human alphaherpesvirus 1. Description: Antiviral activity against HSV1.
Test [3] deals with Human alphaherpesvirus 2. The test can be described thus: Antiviral activity against HSV2.
Test [4] has as its system Human betaherpesvirus 5. Description: Antiviral activity against HCMV.

Values after ≈ are worked out from the molar mass of the structure shown. Active and inactive are the calls of the source. The rule behind the calls is not given here.

On to `Cc1cn([C@@H]2C=C(CO)[C@@H](CO)O2)c(=O)[nH]c1=O`, for which the result in test [1], in test [3] and in test [4] was inactive. This molecule also displayed an EC50 in test [2] of 33 µg/mL (≈ 130 µM).

In the case of `Nc1ncnc2c1ncn2[C@@H]1C=C(CO)[C@@H](CO)O1`, the outcome in test [1], in test [2], in test [3] and in test [4] was inactive.

For the molecule `NC1C=CN([C@@H]2C=C(CO)[C@@H](CO)O2)C(=O)N1` (some centres not stated), the result in test [1], in test [2], in test [3] and in test [4] was inactive.

By EC50 is commonly meant the concentration at which the effect is half-maximal.

The values are drawn from ChEMBL document CHEMBL1255212, “Synthesis and antiviral evaluation of α-D-2',3'-didehydro-2',3'-dideoxy-3'-C-hydroxymethyl nucleosides” (Bioorg Med Chem Lett, 2010).
